Key:
KRas wild type = experiment: Ras GTP Binding Domain Inhibition Assay (Ras Superfamily Assay); details: for KRas wild type + SOS: % inh.: with SOS; for KRas wild type: % inh.: without SOS
How it was run: (§1)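 Ni-plate capture of His-tagged protein (10-30 μg/mL, o/n 4° C); cpd 20 μM or dilution series, 1% DMSO, 3 h RT ± Sos 556-1049 last h; 100 nM Cy-labelled GTP 45 min RT; 3× wash; fluorescence read.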

Rac-1 = molecular target: T1, Rac-1 (Homo sapiens, UniProt P63000); experiment: as above; details: read-out: Rac-1: % inh.
T1 construct: made in house
How it was run: as §1

KRas G12D mutant = experiment: as above; details: for KRas G12D mutant + SOS: % inh.: with SOS; for KRas G12D mutant: % inh.: without SOS
How it was run: as §1

Akt phosphorylation = experiment: Akt Phosphorylation Assay (western blot), Panc-1; format: cell-based, human; details: at 10 μM, * = activation
How it was run: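 Panc-1 (KRas G12D) cells were treated with compound at 10 μM final (0.3% DMSO) for 6 h at 37 °C, or with serial dilutions for IC50. Cells were either serum-starved overnight in 0.5% FBS and then stimulated with 1.5 ng/ml EGF for 15 min, or kept in 10% FBS without stimulation. Akt Ser473 phosphorylation in lysates was read by western blot.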

IL6 = experiment: IL-6 Quantification Assay (ELISA), LPS-stimulated RAW 264.7; format: cell-based; design: inhibition: dose or concentration left out as unconfirmed; details: Mus musculus, RAW264.7; read-out: IL-6: % inh.

Compound | KRas wild type + SOS: % inh. (KRas wild type; 20 μM compound) | KRas wild type: % inh. (KRas wild type; 20 μM compound) | inhibition at 20 µM (Rac-1) [%] | KRas G12D mutant + SOS: % inh. (KRas G12D mutant; 20 μM compound) | KRas G12D mutant: % inh. (KRas G12D mutant; 20 μM compound) | % inh of Akt phosphorylation in Panc-1 (Akt phosphorylation) | inhibition (IL6) [%] | KRas wild type + SOS: % inh. (KRas wild type; at 20 μM) | KRas wild type: % inh. (KRas wild type; at 20 μM) | KRas G12D mutant + SOS: % inh. (KRas G12D mutant; at 20 μM) | KRas G12D mutant: % inh. (KRas G12D mutant; at 20 μM)
Cn1ccnc1-c1nc(O)c2c(-c3ccccc3)ccn2n1 [Compound 39, 2-(1-Methyl-1H-imidazol-2-yl)-5-phenylpyrrolo[2,1-f][1,2,4]triazin-4-ol] | A (A = 1-25% inhibition) | A (A = 1-25% inhibition) | 0 | A (A = 1-25% inhibition) | A (A = 1-25% inhibition) | 0 (0% inhibition) | 0 | – | – | – | –
COc1cccnc1Nc1nc(-c2nccn2C)nn2cc(-c3ccn(C(C)C)n3)c(C)c12 [Compound 89, 6-(1-Isopropyl-1H-pyrazol-3-yl)-N-(3-methoxypyridin-2-yl)-5-methyl-2-(1-methyl-1H-imidazol-2-yl)pyrrolo[2,1-f][1,2,4]triazin-4-amine] | D (D = 76-100% inhibition) | D (D = 76-100% inhibition) | 76 to 100 | D (D = 76-100% inhibition) | D (D = 76-100% inhibition) | D* (85-100% activation) | 75 to 100 | – | – | – | –
Cc1c(-c2ccn(C(C)C)n2)cn2nc(-c3nccn3C)nc(Nc3cnn(C(C)C)n3)c12 [Compound 77, 6-(1-Isopropyl-1H-pyrazol-3-yl)-N-(2-isopropyl-2H-1,2,3-triazol-4-yl)-5-methyl-2-(1-methyl-1H-imidazol-2-yl)pyrrolo[2,1-f][1,2,4]triazin-4-amine] | C (C = 50-75% inhibition) | C (C = 50-75% inhibition) | 76 to 100 | B (B = 26-49% inhibition) | D (D = 76-100% inhibition) | D* (85-100% activation) | 1 to 24 | – | – | – | –
COC1CCCN(c2nc(-c3nccn3C)nn3cc(-c4ccn(C(C)C)n4)c(-c4ccccc4)c23)C1 (racemic) [Compound 21, rac 6-(1-Isopropyl-1H-pyrazol-3-yl)-4-(3-methoxypiperidin-1-yl)-2-(1-methyl-1H-imidazol-2-yl)-5-phenylpyrrolo[2,1-f][1,2,4]triazine] | A (A = 1-25% inhibition) | A (A = 1-25% inhibition) | 0 | 0 (0 = 0% inhibition) | B (B = 26-49% inhibition) | C* (46-84% activation) | 1 to 24 | – | – | – | –
Cc1c(-c2ccn(C(C)C)n2)cn2nc(-c3nccn3C)nc(Nc3cn(C(C)C)nn3)c12 [Compound 78, N-(1-Isopropyl-1H-1,2,3-triazol-4-yl)-6-(1-isopropyl-1H-pyrazol-3-yl)-5-methyl-2-(1-methyl-1H-imidazol-2-yl)pyrrolo[2,1-f][1,2,4]triazin-4-amine] | D (D = 76-100% inhibition) | D (D = 76-100% inhibition) | 76 to 100 | D (D = 76-100% inhibition) | D (D = 76-100% inhibition) | D* (85-100% activation) | 25 to 49 | – | – | – | –
COc1nccc(Nc2nc(-c3nccn3C)nn3cc(-c4ccn(C(C)C)n4)c(C)c23)n1 [Compound 86, 6-(1-Isopropyl-1H-pyrazol-3-yl)-N-(2-methoxypyrimidin-4-yl)-5-methyl-2-(1-methyl-1H-imidazol-2-yl)pyrrolo[2,1-f][1,2,4]triazin-4-amine] | 0 (0 = 0% inhibition) | B (B = 26-49% inhibition) | 50 to 75 | C (C = 50-75% inhibition) | A (A = 1-25% inhibition) | D* (85-100% activation) | 75 to 100 | – | – | – | –
COC[C@@H]1CC[C@@H]1CNc1nc(-c2nccn2C)nn2cc(-c3ccn(C(C)C)n3)c(C)c12 (racemic) [Compound 3, rac 6-(1-Isopropyl-1H-pyrazol-3-yl)-N-(((1S,2R)-2-(methoxymethyl)cyclobutyl)methyl)-5-methyl-2-(1-methyl-1H-imidazol-2-yl)pyrrolo[2,1-f][1,2,4]triazin-4-amine] | 0 (0 = 0% inhibition) | 0 (0 = 0% inhibition) | 1 to 25 | 0 (0 = 0% inhibition) | 0 (0 = 0% inhibition) | B (26-49% inhibition) | 50 to 74 | – | – | – | –
COc1cnc(Nc2nc(-c3nccn3C)nn3cc(-c4ccn(C(C)C)n4)c(C)c23)cn1 [Compound 83, 6-(1-Isopropyl-1H-pyrazol-3-yl)-N-(5-methoxypyrazin-2-yl)-5-methyl-2-(1-methyl-1H-imidazol-2-yl)pyrrolo[2,1-f][1,2,4]triazin-4-amine] | C (C = 50-75% inhibition) | D (D = 76-100% inhibition) | 76 to 100 | D (D = 76-100% inhibition) | D (D = 76-100% inhibition) | D* (85-100% activation) | 25 to 49 | – | – | – | –
COc1cccc(-c2cn3nc(-c4nccn4C)nc(N[C@@H]4CC[C@@H](OC)C4)c3c2-c2ccccc2)c1C (racemic) [Compound 270, rac 6-(3-Methoxy-2-methylphenyl)-N-((1R,3R)-3-methoxycyclopentyl)-2-(1-methyl-1H-imidazol-2-yl)-5-phenylpyrrolo[2,1-f][1,2,4]triazin-4-amine] | – | – | 26 to 49 | – | – | D (85-100% inhibition) | 75 to 100 | A (A = 1-25% inhibition) | B (B = 26-49% inhibition) | B (B = 26-49% inhibition) | B (B = 26-49% inhibition)
COCC1CCN(c2nc(-c3nccn3C)nn3cc(-c4ccn(C(C)C)n4)c(C)c23)C1 (racemic) [Compound 2, rac 6-(1-Isopropyl-1H-pyrazol-3-yl)-4-(3-(methoxymethyl)pyrrolidin-1-yl)-5-methyl-2-(1-methyl-1H-imidazol-2-yl)pyrrolo[2,1-f][1,2,4]triazine] | 0 (0 = 0% inhibition) | 0 (0 = 0% inhibition) | 0 | 0 (0 = 0% inhibition) | 0 (0 = 0% inhibition) | C* (46-84% activation) | 1 to 24 | – | – | – | –
COc1ncc(Nc2nc(-c3nccn3C)nn3cc(-c4ccn(C(C)C)n4)c(C)c23)cn1 [Compound 80, 6-(1-Isopropyl-1H-pyrazol-3-yl)-N-(2-methoxypyrimidin-5-yl)-5-methyl-2-(1-methyl-1H-imidazol-2-yl)pyrrolo[2,1-f][1,2,4]triazin-4-amine] | A (A = 1-25% inhibition) | A (A = 1-25% inhibition) | 1 to 25 | 0 (0 = 0% inhibition) | A (A = 1-25% inhibition) | D* (85-100% activation) | 0 | – | – | – | –
Cc1c(-c2ccn(C(C)C)n2)cn2nc(-c3nccn3C)nc(Nc3cc4n(n3)CCO4)c12 [Compound 91, N-(6-(1-Isopropyl-1H-pyrazol-3-yl)-5-methyl-2-(1-methyl-1H-imidazol-2-yl)pyrrolo[2,1-f][1,2,4]triazin-4-yl)-2,3-dihydropyrazolo[5,1-b]oxazol-6-amine] | C (C = 50-75% inhibition) | D (D = 76-100% inhibition) | 76 to 100 | D (D = 76-100% inhibition) | D (D = 76-100% inhibition) | D* (85-100% activation) | 1 to 24 | – | – | – | –

Source: US12459951B2, “Compounds that interact with RAS superfamily proteins for treatment of cancers, inflammatory diseases, rasopathies, and fibrotic disease” (SHY Therapeutics, LLC, priority 2022, dated 2025)
